# Results from article PMC6115404 (2018).
# Key:
# [1] = system: Tel26 (DNA, G4) AAAGGGTTAGGGTTAGGGTTAGGGAA; assay: NMR solution structure; details: K+ (25 mM K-phosphate, 70 mM KCl); pH 7.0, 25 °C; bound at 5'-end, slow exchange
# [2] = system: wtTel26 (DNA, G4) TTAGGGTTAGGGTTAGGGTTAGGGTT; assay: 1H NMR titration; details: K+ (25 mM K-phosphate, 70 mM KCl); no well-defined complex at higher equivalents
# [3] = system: F10T (for FRET), double-stranded DNA (DNA, hairpin, hexaethylene glycol (HEG) linker between nucleotides 10 and 11) TATAGCTATATATAGCTATA; assay: FRET melting; details: K+ (60 mM potassium cacodylate); pH 7.4; 400 nM DNA; compound concentration not in text
# [4] = system: Tel26 (for FRET) (DNA, G4) AAAGGGTTAGGGTTAGGGTTAGGGAA; assay: FRET melting; details: K+ (60 mM potassium cacodylate); pH 7.4; 400 nM DNA, 1.0 equivalent compound; second Tm (ΔTm 41.5, dimeric complex) at 2-3 equivalents
smiles,measurement,setting,value
NCCNCCN.NCCNCCN.NCCNCCN.[Pt+2].[Pt+2].[Pt+2].c1cc(-c2ccc(N(c3ccc(-c4ccncc4)cc3)c3ccc(-c4ccncc4)cc3)cc2)ccn1,binding,[1],yes
same,binding,[2],yes
same,ΔTm,[3],2.5 °C
same,ΔTm,[4],8.4 °C
